Values of other authors, collected in patent US20140057918A1, “Methods of Use for Monomethyl Fumarate and Prodrugs Thereof” (XenoPort, Inc., priority 2012, published 2014).
Counter-ions that a name gives are not always drawn.

Assays:
herpes simplex virus = conditions: animals infected with the herpes simplex virus

## COC(=O)/C=C/C(=O)OC [Dimethyl fumarate, Dimethyl (E)-butenedioate]
other
  aqueous solubility: poor
Herpes simplex virus
  herpes stromal keratitis: improved
